{"source": "patent US20240368560A1", "about": "“METHODS OF PRODUCING THREE-DIMENSIONAL CELLULAR TISSUES” (TOPPAN HOLDINGS INC., priority 2022, published 2024)", "assay_type_in_all_cases": "cell-based, human", "key": {"[1]": {"test_system": "three-dimensional cellular tissue (NHDF, HUVEC, HCT15/β2m cells)", "test": "Bright-field observation of three-dimensional cellular tissue formation (Experimental Example 1)", "conditions": "day 7 of culture; ascorbic acid 0, 0.05 or 0.1 mM; TGF-β 0, 0.1, 1, 5 or 10 ng/mL", "procedure": "1.0×10^6 cells of human neonatal dermal fibroblasts NHDF (product number “CC-2509”, Lonza) and 1.5×10^4 cells of human umbilical vein endothelial cells HUVEC (product number “C2517A”, Lonza) were suspended in a 50 mM tris-HCl buffer solution (pH 7.4) containing 0.1 mg/mL heparin (product number “H3149-100KU”, Sigma) and 0.1 mg/mL collagen (product number “ASC-1-100-100”, Sigma).\nThen, the cell suspension was centrifuged at room temperature at 1,000×g (gravitational acceleration) for 2 minutes, and, after removing the supernatant, resuspended in 300 μL of general-purpose medium. Then, the obtained cell suspension was seeded inside a 24-well cell culture insert (product number “3470”, Corning Incorporated) coated with 0.1 mg/mL fibronectin in advance, with 1 mL of general-purpose medium added to the outside.\nThen, the cell culture insert was centrifuged at room temperature at 400×g for 2 minutes, and then allowed to stand in a CO2 incubator (37° C., 5% CO2) for 2 hours. Then, 1 mL of general-purpose medium was added to the outside the cell culture insert, and the cells were cultured in a CO2 incubator (37° C., 5% CO2) for 24 hours (the time at which this culture was started is referred to as the culture start time).\nThe medium outside the cell culture insert was removed, and 1 mL of general-purpose medium was added. […]"}, "[2]": {"test_system": "three-dimensional cellular tissue (NHDF, HUVEC, HCT15/β2m cells)", "test": "Formation of collagen, PSR staining (Experimental Example 1)", "conditions": "ascorbic acid 0.1 mM, alone or with TGF-β 1 ng/mL", "procedure": "The medium inside and outside the above cell culture insert was removed, and 2 mL of general-purpose medium was added, using magnesium ascorbate phosphate (product number “013-12061”, FUJIFILM Wako Pure Chemical Corporation) and TGF-β (product number “209-16544”, FUJIFILM Wako Pure Chemical Corporation), with the ascorbic acid concentration being 0 mM, […], and the cells were cultured in a CO2 incubator (37° C., 5% CO2) for 3 days. Then, the medium inside and outside the culture insert was removed, and 2.3 mL of general-purpose medium was added with the ascorbic acid concentration being 0 mM, […], and the cells were cultured in a CO2 incubator (37° C., 5% CO2) for 3 days. On day 4 and day 7 of the culture, the obtained three-dimensional cellular tissue was washed twice with PBS, and […] of 10% formalin buffer solution (product number “062-01661”, FUJIFILM Wako Pure Chemical Corporation) was added to the cell culture insert, which was then allowed to stand for 15 minutes or more and washed three times with PBS to fix the three-dimensional cellular tissue. Then, the three-dimensional cellular tissue was removed from the cell culture insert, embedded in paraffin, and cut along a line passing through the center of gravity in a direction perpendicular to the top of the three-dimensional cellular tissue (top of the cell culture insert) to prepare a […] thin slice. […]"}, "[3]": {"test_system": "three-dimensional cellular tissue (NHDF, HUVEC, HCT15/β2m cells)", "test": "Formation of collagen, PSR staining, timing of ascorbic acid addition (Experimental Example 2)", "conditions": "day 7 of culture", "procedure": "Preparation of stromal cells, seeding of cancer cells and lamination of stromal cells were performed in the same manner as in Experimental Example 1 except that 2.0×10^6 cells of human neonatal dermal fibroblasts NHDF were seeded, as NHDF, in a square dish (product number “166508”, Nunc) containing 90 mL of general-purpose medium or general-purpose medium containing 0.1 mM ascorbic acid, and cultured in a CO2 incubator (37° C., 5% CO2) for 24 hours.\nThen, the medium inside and outside the cell culture insert was removed, and 2.3 mL of general-purpose medium or general-purpose medium containing 0.1 mM ascorbic acid was added, and the cells were cultured in a CO2 incubator (37° C., 5% CO2) for 3 days.\nSubsequently, the medium inside and outside the culture insert was removed, and 2.3 mL of general-purpose medium or general-purpose medium containing 0.1 mM ascorbic acid was added, and the cells were cultured in a CO2 incubator (37° C., 5% CO2) for 3 days.\nOn day 7 of the culture, the three-dimensional cellular tissue was washed twice with PBS, and 300 μL of 10% formalin buffer solution (product number “062-01661”, FUJIFILM Wako Pure Chemical Corporation) was added to the cell culture insert, which was then allowed to stand for 15 minutes or more and washed three times with PBS to fix the three-dimensional cellular tissue. […]"}}, "data": [{"compound": "O=C1O[C@H]([C@@H](O)CO)C(O)=C1O", "note": "[ascorbic acid]", "values": [{"measurement": "formation of three-dimensional cellular tissue (microscopic observation)", "setting": "[1]", "result": "a three-dimensional cellular tissue was formed"}, {"measurement": "formation of collagen (PSR staining, PSR ratio)", "setting": "[2]", "result": "fiber-like collagen was formed"}, {"measurement": "formation of collagen (PSR staining)", "setting": "[3]; 0.1 mM ascorbic acid added after formation of the three-dimensional cellular tissue", "result": "collagen was found to be formed"}, {"measurement": "formation of collagen (PSR staining)", "setting": "[3]; 0.1 mM ascorbic acid added to NHDF in advance (24 hours before tissue formation)", "result": "no change in formation of collagen"}]}, {"compound": "TGF-β", "values": [{"measurement": "formation of three-dimensional cellular tissue (microscopic observation)", "setting": "[1]", "result": "the cellular tissue shrunk and became detached from the cell culture insert, and no three-dimensional cellular tissue was formed"}]}]}
